Measurements reported in patent US20240140979A1, “HETEROCYCLIC INHIBITORS OF CD73 FOR TREATMENT OF DISEASE” (Teon Therapeutics, Inc., priority 2022, published 2024).
pIC50: −log10 of the molar value.

Biological target: human CD73 enzyme (Homo sapiens (Human), UniProt P21589)
Experiment: Biochemical CD73 Assay
Conditions: recombinant human CD73 2 nM, AMP 40 μM, Malachite Green free phosphate detection
Description: Activity of recombinant CD73 was measured by quantification of free phosphate using the Malachite Green detection system (R&D Systems #DY996). Test compounds were solubilized in DMSO and dispensed into 384-well polystyrene plates in a 8-point 3× titration in duplicates. Then, 10 μL of 4 nM human CD73 enzyme (Novoprotein #C446) in phosphate- free assay buffer (10 mM HEPES, pH 7.4, 125 mM NaCl, 1 mM KCl, 10 mM glucose, 2 mM MgCl2) was added to the plates. The compound and enzyme were incubated for 15 min at RT. Then, 10 μL of 80 μM AMP (Sigma Aldrich #A1752) in the assay buffer was added and the reaction mixture was incubated for […] at 37° C. The final concentrations of CD73 and AMP in the reaction were 2 nM and 40 μM, respectively. The reaction was stopped by adding 5 μL of Malachite Green reagent A and incubating for 10 mM at RT, followed by addition of 5 μL of Malachite Green reagent B and incubation for 20 mM at RT. Absorbance was then read at 620 nm with the Flexstation spectrophotometer (Molecular Devices). The IC50 values were determined using a four-parameter nonlinear regression curve fit.

Sequence of human CD73 enzyme (P21589 27-574): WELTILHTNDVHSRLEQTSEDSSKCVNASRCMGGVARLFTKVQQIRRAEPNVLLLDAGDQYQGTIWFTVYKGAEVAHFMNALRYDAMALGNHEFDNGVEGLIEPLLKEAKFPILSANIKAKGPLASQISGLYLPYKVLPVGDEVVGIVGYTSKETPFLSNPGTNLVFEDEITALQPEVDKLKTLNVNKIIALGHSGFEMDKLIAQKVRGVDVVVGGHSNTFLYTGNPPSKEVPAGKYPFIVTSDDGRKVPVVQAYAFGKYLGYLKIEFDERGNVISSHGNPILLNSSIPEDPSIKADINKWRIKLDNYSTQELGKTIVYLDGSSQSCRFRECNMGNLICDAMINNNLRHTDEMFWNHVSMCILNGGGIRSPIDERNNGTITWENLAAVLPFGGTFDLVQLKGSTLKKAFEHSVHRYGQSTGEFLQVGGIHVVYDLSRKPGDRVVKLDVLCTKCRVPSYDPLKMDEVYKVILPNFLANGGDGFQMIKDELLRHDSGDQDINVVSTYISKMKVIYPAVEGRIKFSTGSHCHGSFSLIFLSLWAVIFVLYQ

SMILES	pIC50
COC[C@@](OC[C@H]1O[C@@H](n2ncc3c(NC4CCCC4)nc(Cl)nc32)[C@H](O)[C@@H]1O)(C(=O)NS(=O)(=O)N1CCCC1)P(=O)(O)O [Example 4]	8.22
COC[C@](OC[C@H]1O[C@@H](n2ncc3c(NC4CCCC4)nc(Cl)nc32)[C@H](O)[C@@H]1O)(C(=O)NS(=O)(=O)N(C)C)P(=O)(O)O [Example 2, ((R)-2-(((2R,3S,4R,5R)-5-(6-chloro-4-(cyclopentylamino)-1H-pyrazolo[3,4-d]pyrimidin-1-yl)-3,4-dihydroxytetrahydrofuran-2-yl)methoxy)-1-((N,N-dimethylsulfamoyl)amino)-3-methoxy-1-oxourouan-2-yl)phosphonic Acid]	6.94
COC[C@@](OC[C@H]1O[C@@H](n2ncc3c(NC4CCCC4)nc(Cl)nc32)[C@H](O)[C@@H]1O)(C(=O)NS(=O)(=O)N1CCC1)P(=O)(O)O [Example 5, ((S)-1-(Azetidine-1-sulfonamido)-2-(((2R,3S,4R,5R)-5-(6-chloro-4-(cyclopentylamino)-1H-pyrazolo[3,4-d]pyrimidin-1-yl)-3,4-dihydroxytetrahydrofuran-2-yl)methoxy)-3-methoxy-1-oxopropan-2-yl)phosphonic Acid]	8.64
COC[C@@](OC[C@H]1O[C@@H](n2ncc3c(NC4CCCC4)nc(Cl)nc32)[C@H](O)[C@@H]1O)(C(=O)NS(=O)(=O)N1CCCC1=O)P(=O)(O)O [Example 3]	9.32
COC[C@@](OC[C@H]1O[C@@H](n2ncc3c(NC4CCCC4)nc(Cl)nc32)[C@H](O)[C@@H]1O)(C(=O)NS(=O)(=O)N1CC[C@@H](O)C1)P(=O)(O)O [Example 7]	8.21
COC[C@](OC[C@H]1O[C@@H](n2ncc3c(NC4CCCC4)nc(Cl)nc32)[C@H](O)[C@@H]1O)(C(=O)NS(=O)(=O)N1CCC1)P(=O)(O)O [Example 6, ((R)-1-(Azetidine-1-sulfonamido)-2-(((2R,3S,4R,5R)-5-(6-chloro-4-(cyclopentylamino)-1H-pyrazolo[3,4-d]pyrimidin-1-yl)-3,4-dihydroxytetrahydrofuran-2-yl)methoxy)-3-methoxy-1-oxopropan-2-yl)phosphonic Acid]	6.09
COC[C@@](OC[C@H]1O[C@@H](n2ncc3c(NC4CCCC4)nc(Cl)nc32)[C@H](O)[C@@H]1O)(C(=O)NS(=O)(=O)N1CC[C@H](O)C1)P(=O)(O)O [Example 9, ((S)-2-(((2R,3S,4R,5R)-5-(6-Chloro-4-(cyclopentylamino)-1H-pyrazolo[3,4-d]pyrimidin-1-yl)-3,4-dihydroxytetrahydrofuran-2-yl)methoxy)-1-(((S)-3-hydroxypyrrolidine)-1-sulfonamido)-3-methoxy-1-oxopropan-2-yl)phosphonic Acid]	8.52
COC[C@@](OC[C@H]1O[C@@H](n2ncc3c(NC4CCCC4)nc(Cl)nc32)[C@H](O)[C@@H]1O)(C(=O)NS(=O)(=O)N(C)C)P(=O)(O)O [Example 1, ((S)-2-(((2R,3S,4R,5R)-5-(6-Chloro-4-(cyclopentylamino)-1H-pyrazolo[3,4-d]pyrimidin-1-yl)-3,4-dihydroxytetrahydrofuran-2-yl)methoxy)-1-((N,N-dimethylsulfamoyl)amino)-3-methoxy-1-oxopropan-2-yl)phosphonic Acid]	8.19
